# Measured values: ChEMBL document CHEMBL4765241, “Identification and Preclinical Pharmacology of ((1 R,3 S)-1-Amino-3-(( S)-6-(2-methoxyphenethyl)-5,6,7,8-tetrahydronaphthalen-2-yl)cyclopentyl)methanol (BMS-986166): A Differentiated Sphingosine-1-phosphate Receptor 1 (S1P) Modulator Advanced into Clinical Trials” (J Med Chem, 2019)
# Activity calls are given as the source filed them. No cut-off for these calls is given here.
# Experiments:
# [1] = Ratio of drug metabolism in Lewis rat blood assessed as phosphate ester metabolite to parent drug at 2 mg/kg, po measured at 24 hrs by LC-MS/MS analysis; format: ADME, organism-based; conditions: in vivo
# [2] = Pulmonary toxicity in Lewis rat assessed as elevation of BAL protein level at 10 mg/kg by advia1800 chemistry analyzer; format: organism-based; conditions: in vivo
# Rattus norvegicus [3] = assay: Drug metabolism in Lewis rat blood assessed as concentration of phosphate ester metabolite formation at 2 mg/kg, po measured at 4 hrs by LC-MS/MS analysis; conditions: in vivo
# [4] = Drug metabolism in Lewis rat blood assessed as concentration of parent compound at 2 mg/kg, po measured at 4 hrs by LC-MS/MS analysis; format: ADME, organism-based; conditions: read-out: Ct
# Rattus norvegicus [5] = assay: Reduction in circulating lymphocytes in Lewis rat blood at 2 mg/kg, po measured at 24 hrs by hematology analyzer based analysis; format: functional; design: scale not given: the % may be the effect or the level left
# Rattus norvegicus [6] = assay: Reduction in circulating lymphocytes in Lewis rat blood assessed as effective dose after oral dosing measured at 24 hrs by hematology analyzer based analysis; format: functional
# [7] = Pulmonary toxicity in Lewis rat assessed as elevation of BAL protein level at 2 mg/kg by advia1800 chemistry analyzer; format: organism-based; conditions: in vivo
# [8] = Half-life in Lewis rat at 2 mg/kg, po measured over 72 hrs by LC-MS/MS analysis; format: ADME, organism-based; conditions: in vivo
# [9] = Drug metabolism in Lewis rat blood assessed as concentration of parent compound at 2 mg/kg, po measured at 24 hrs by LC-MS/MS analysis; format: ADME, organism-based; conditions: read-out: Ct
# Rattus norvegicus [10] = assay: Reduction in circulating lymphocytes in Lewis rat blood at 2 mg/kg, po measured at 4 hrs by hematology analyzer based analysis; format: functional; design: scale not given: the % may be the effect or the level left
# Cerebellar cortex [11] = assay: Induction of remyelination in lysophosphatidylcholine-induced demyelination in wild-type CD1 mouse organotypic cerebellar slice assessed as myelination index at 0.01 to 10 nM incubated for 7 days by immunohistochemistry based three-dimensional brain cell culture assay (reference value: 50%); format: functional; conditions: dose 0.01-10 nM, time 7 day
# [12] = Cardiotoxicity in human iPSC derived cardiomyocytes assessed as reduction in beating rate at 10 nM measured over 2 hrs by multi-electrode array relative to control; format: toxicity, cell-based; design: scale not given: the % may be the effect or the level left; conditions: stem cell-derived cardiomyocyte, 0.01 µM
# [13] = Cardiotoxicity in human iPSC derived cardiomyocytes assessed as reduction in beating rate at 1 nM measured over 2 hrs by multi-electrode array relative to control; format: toxicity, cell-based; design: scale not given: the % may be the effect or the level left; conditions: stem cell-derived cardiomyocyte, 0.001 µM
# Cerebellar cortex [14] = assay: Induction of remyelination in lysophosphatidylcholine-induced demyelination in wild-type CD1 mouse organotypic cerebellar slice at 0.01 to 10 nM incubated for 7 days by immunohistochemistry based three-dimensional brain cell culture assay; format: functional, tissue-based; conditions: dose 0.01-10 nM, time 7.0 day
# [15] = biological target: T1, Sphingosine 1-phosphate receptor 4 (Homo sapiens, UniProt O95977); assay: Agonist activity at human recombinant S1P4 expressed in CHO cell membranes assessed as stimulation of [35S]-GTPgammaS binding measured after 45 mins by liquid scintillation counting assay; format: functional, Cell membrane
# T1 sequence (O95977 whole entry): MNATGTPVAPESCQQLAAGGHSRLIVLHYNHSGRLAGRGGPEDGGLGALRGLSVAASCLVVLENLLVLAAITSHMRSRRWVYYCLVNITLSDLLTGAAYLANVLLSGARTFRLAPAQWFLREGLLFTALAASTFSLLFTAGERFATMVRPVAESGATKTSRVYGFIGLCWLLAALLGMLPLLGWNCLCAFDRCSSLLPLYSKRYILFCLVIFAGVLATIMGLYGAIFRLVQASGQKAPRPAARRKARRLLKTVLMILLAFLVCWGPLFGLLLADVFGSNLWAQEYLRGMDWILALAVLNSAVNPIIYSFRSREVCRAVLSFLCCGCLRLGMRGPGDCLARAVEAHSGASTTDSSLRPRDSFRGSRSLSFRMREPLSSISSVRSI
# [16] = Drug metabolism in Balb/c mouse blood assessed as concentration of parent compound at 1 mg/kg, po measured at 24 hrs by LC-MS/MS analysis; format: ADME, organism-based; conditions: Balb/c, blood, read-out: Ct
# [17] = Drug metabolism in Balb/c mouse blood assessed as concentration of phosphate ester metabolite formation at 1 mg/kg, po measured at 4 hrs by LC-MS/MS analysis; format: ADME, organism-based; conditions: in vivo
# Mus musculus [18] = assay: Reduction in circulating lymphocytes in Balb/c mouse blood at 1 mg/kg, po measured at 4 hrs by hematology analyzer based analysis; format: functional; design: scale not given: the % may be the effect or the level left
# [19] = Ratio of drug metabolism in Balb/c mouse blood assessed as phosphate ester metabolite to parent drug at 1 mg/kg, po measured at 24 hrs by LC-MS/MS analysis; format: ADME, organism-based; conditions: in vivo
# Mus musculus [20] = assay: Reduction in circulating lymphocytes in Balb/c mouse blood at 1 mg/kg, po measured at 24 hrs by hematology analyzer based analysis; format: functional; design: scale not given: the % may be the effect or the level left
# [21] = Drug metabolism in Balb/c mouse blood assessed as concentration of parent compound at 15 mg/kg, po measured at 4 hrs by LC-MS/MS analysis; format: ADME, organism-based; conditions: read-out: Ct
# [22] = Drug metabolism in Balb/c mouse blood assessed as concentration of phosphate ester metabolite formation at 15 mg/kg, po measured at 4 hrs by LC-MS/MS analysis; format: ADME, organism-based; conditions: in vivo
# [23] = Ratio of drug metabolism in Balb/c mouse blood assessed as phosphate ester metabolite to parent drug at 15 mg/kg, po measured at 24 hrs by LC-MS/MS analysis; format: ADME, organism-based; conditions: in vivo
# [24] = Drug metabolism in Balb/c mouse blood assessed as concentration of parent compound at 15 mg/kg, po measured at 24 hrs by LC-MS/MS analysis; format: ADME, organism-based; conditions: read-out: Ct
# [25] = Drug metabolism in Balb/c mouse blood assessed as concentration of phosphate ester metabolite formation at 1 mg/kg, po measured at 24 hrs by LC-MS/MS analysis; format: ADME, organism-based; conditions: in vivo
# [26] = Drug metabolism in Balb/c mouse blood assessed as concentration of phosphate ester metabolite formation at 15 mg/kg, po measured at 24 hrs by LC-MS/MS analysis; format: ADME, organism-based; conditions: in vivo
# Mus musculus [27] = assay: Reduction in circulating lymphocytes in Balb/c mouse blood at 15 mg/kg, po measured at 4 hrs by hematology analyzer based analysis; format: functional; design: scale not given: the % may be the effect or the level left
# [28] = Drug metabolism in Balb/c mouse blood assessed as concentration of parent compound at 1 mg/kg, po measured at 4 hrs by LC-MS/MS analysis; format: ADME, organism-based; conditions: Balb/c, blood, read-out: Ct
# Mus musculus [29] = assay: Reduction in circulating lymphocytes in Balb/c mouse blood at 15 mg/kg, po measured at 24 hrs by hematology analyzer based analysis; format: functional; design: scale not given: the % may be the effect or the level left
# [30] = biological target: Sphingosine 1-phosphate receptor 3 (Homo sapiens, UniProt Q99500); assay: Agonist activity at human recombinant S1P3 expressed in CHO cell membranes assessed as stimulation of [35S]-GTPgammaS binding measured after 45 mins by liquid scintillation counting assay; design: species or system Cell membrane
# Chain of Sphingosine 1-phosphate receptor 3 (Q99500 whole entry): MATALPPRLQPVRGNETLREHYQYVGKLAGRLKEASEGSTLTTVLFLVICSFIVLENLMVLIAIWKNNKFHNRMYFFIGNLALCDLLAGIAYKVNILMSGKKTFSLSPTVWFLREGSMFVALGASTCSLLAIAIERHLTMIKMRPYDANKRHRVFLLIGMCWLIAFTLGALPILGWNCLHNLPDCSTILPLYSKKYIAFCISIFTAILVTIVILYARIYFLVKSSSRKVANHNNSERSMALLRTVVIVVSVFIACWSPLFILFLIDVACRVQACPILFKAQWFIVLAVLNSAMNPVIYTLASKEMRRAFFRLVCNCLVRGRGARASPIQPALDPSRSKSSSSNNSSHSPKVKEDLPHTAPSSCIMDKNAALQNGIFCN
# [31] = Drug metabolism in Balb/c mouse blood assessed as concentration of phosphate ester metabolite formation at 50 mg/kg, po measured at 24 hrs by LC-MS/MS analysis; format: ADME, organism-based; conditions: in vivo
# [32] = Drug metabolism in Balb/c mouse blood assessed as concentration of parent compound at 50 mg/kg, po measured at 4 hrs by LC-MS/MS analysis; format: ADME, organism-based; conditions: read-out: Ct
# Mus musculus [33] = assay: Reduction in circulating lymphocytes in Balb/c mouse blood at 50 mg/kg, po measured at 4 hrs by hematology analyzer based analysis; format: functional; design: scale not given: the % may be the effect or the level left
# [34] = Ratio of drug metabolism in Balb/c mouse blood assessed as phosphate ester metabolite to parent drug at 30 mg/kg, po measured at 24 hrs by LC-MS/MS analysis; conditions: in vivo
# [35] = Drug metabolism in Balb/c mouse blood assessed as concentration of phosphate ester metabolite formation at 50 mg/kg, po measured at 4 hrs by LC-MS/MS analysis; format: ADME, organism-based; conditions: in vivo
# [36] = Drug metabolism in Balb/c mouse blood assessed as concentration of parent compound at 50 mg/kg, po measured at 24 hrs by LC-MS/MS analysis; format: ADME, organism-based; conditions: read-out: Ct
# Mus musculus [37] = assay: Reduction in circulating lymphocytes in Balb/c mouse blood at 50 mg/kg, po measured at 24 hrs by hematology analyzer based analysis; format: functional; design: scale not given: the % may be the effect or the level left
# [38] = Pulmonary toxicity in Lewis rat assessed as elevation of BAL protein level at 25 mg/kg by advia1800 chemistry analyzer; format: organism-based; conditions: in vivo
smiles,measurement,setting,value
COc1ccccc1CC[C@H]1CCc2cc([C@H]3CC[C@](N)(CO)C3)ccc2C1,Ratio,[1],1
same,Activity,[2],29 mg/dL
same,Drug metabolism,Rattus norvegicus [3],40 nM
same,concentration at 4 h,[4],90 nM
same,Activity,Rattus norvegicus [5],81%
same,ED50,Rattus norvegicus [6],0.05 mg/kg
same,Activity,[7],10.5 mg/dL
same,half-life,[8],20 h
same,concentration at 24 h,[9],50 nM
same,Activity,Rattus norvegicus [10],46%
CCCCCCCCc1ccc(CC[C@](N)(CO)COP(=O)(O)O)cc1 [FTY720-P],Activity,Cerebellar cortex [11],100%
same,Activity,[12],62%
same,Activity,[13],38%
same,Activity,Cerebellar cortex [14],Active
same,EC50,[15],1.6 nM
N[C@]1(CO)CC[C@H](c2ccc3c(c2)CC[C@@H](CCc2ccccc2)C3)C1,concentration at 24 h,[16],12 nM
same,Drug metabolism,[17]; BLD = below limit of detection,Bld
same,Activity,Mus musculus [18],10%
same,Ratio,[1],6
same,Ratio,[19],2.8
same,Drug metabolism,Rattus norvegicus [3],150 nM
same,Activity,Mus musculus [20],52%
same,concentration at 4 h,[4],130 nM
same,Activity,Rattus norvegicus [5],82%
same,concentration at 4 h,[21],150 nM
same,Drug metabolism,[22],110 nM
same,Ratio,[23],2.3
same,concentration at 24 h,[24],160 nM
same,Drug metabolism,[25],34 nM
same,Drug metabolism,[26],360 nM
same,half-life,[8],> 75 h
same,Activity,Mus musculus [27],81%
same,concentration at 24 h,[9],140 nM
same,concentration at 4 h,[28],13 nM
same,Activity,Rattus norvegicus [10],43%
same,Activity,Mus musculus [29],88%
CCCCCC[C@@H]1CCc2cc([C@H]3CC[C@](N)(COP(=O)(O)O)C3)ccc2C1,EC50,[30],> 1000 nM
N[C@]1(CO)CC[C@H](c2ccc3c(c2)CC[C@H](Cc2ccccc2)C3)C1,concentration at 24 h,[16],9 nM
same,Drug metabolism,[17],12 nM
same,Activity,Mus musculus [18],21%
same,Ratio,[19],1.2
same,Activity,Mus musculus [20],15%
same,Drug metabolism,[31],310 nM
same,concentration at 4 h,[32],1800 nM
same,Drug metabolism,[25],11 nM
same,Activity,Mus musculus [33],83%
same,Ratio,[34],1
same,Drug metabolism,[35],480 nM
same,concentration at 4 h,[28],28 nM
same,concentration at 24 h,[36],300 nM
same,Activity,Mus musculus [37],78%
COc1cccc(CC[C@H]2CCc3cc([C@H]4CC[C@](N)(CO)C4)ccc3C2)c1,Ratio,[1],1.1
same,Activity,[2],17.5 mg/dL
same,Drug metabolism,Rattus norvegicus [3],30 nM
same,concentration at 4 h,[4],120 nM
same,Activity,Rattus norvegicus [5],85%
same,ED50,Rattus norvegicus [6],0.05 mg/kg
same,Activity,[7],10 mg/dL
same,half-life,[8],49 h
same,concentration at 24 h,[9],210 nM
same,Activity,Rattus norvegicus [10],44%
COc1ccc(CC[C@H]2CCc3cc([C@H]4CC[C@](N)(CO)C4)ccc3C2)cc1,Ratio,[1],0.75
same,Drug metabolism,Rattus norvegicus [3],10 nM
same,concentration at 4 h,[4],170 nM
same,Activity,Rattus norvegicus [5],84%
same,ED50,Rattus norvegicus [6],0.6 mg/kg
same,half-life,[8],7 h
same,Activity,[38],24.3 mg/dL
same,concentration at 24 h,[9],40 nM
same,Activity,Rattus norvegicus [10],33%
COc1ccc(CC[C@@H]2CCc3cc([C@H]4CC[C@](N)(CO)C4)ccc3C2)cc1,Ratio,[1],0.4
same,Drug metabolism,Rattus norvegicus [3],10 nM
same,concentration at 4 h,[4],190 nM
same,Activity,Rattus norvegicus [5],81%
same,ED50,Rattus norvegicus [6],0.5 mg/kg
same,half-life,[8],11 h
same,Activity,[38],26 mg/dL
same,concentration at 24 h,[9],40 nM
same,Activity,Rattus norvegicus [10],21%
